Molecular target: T1, human androgen receptor (Homo sapiens, UniProt P10275)
T1 construct: host or cells: MCF-7 cytosol (endogenous) or CHO cells transfected with hAR
T1 sequence (P10275 1-920): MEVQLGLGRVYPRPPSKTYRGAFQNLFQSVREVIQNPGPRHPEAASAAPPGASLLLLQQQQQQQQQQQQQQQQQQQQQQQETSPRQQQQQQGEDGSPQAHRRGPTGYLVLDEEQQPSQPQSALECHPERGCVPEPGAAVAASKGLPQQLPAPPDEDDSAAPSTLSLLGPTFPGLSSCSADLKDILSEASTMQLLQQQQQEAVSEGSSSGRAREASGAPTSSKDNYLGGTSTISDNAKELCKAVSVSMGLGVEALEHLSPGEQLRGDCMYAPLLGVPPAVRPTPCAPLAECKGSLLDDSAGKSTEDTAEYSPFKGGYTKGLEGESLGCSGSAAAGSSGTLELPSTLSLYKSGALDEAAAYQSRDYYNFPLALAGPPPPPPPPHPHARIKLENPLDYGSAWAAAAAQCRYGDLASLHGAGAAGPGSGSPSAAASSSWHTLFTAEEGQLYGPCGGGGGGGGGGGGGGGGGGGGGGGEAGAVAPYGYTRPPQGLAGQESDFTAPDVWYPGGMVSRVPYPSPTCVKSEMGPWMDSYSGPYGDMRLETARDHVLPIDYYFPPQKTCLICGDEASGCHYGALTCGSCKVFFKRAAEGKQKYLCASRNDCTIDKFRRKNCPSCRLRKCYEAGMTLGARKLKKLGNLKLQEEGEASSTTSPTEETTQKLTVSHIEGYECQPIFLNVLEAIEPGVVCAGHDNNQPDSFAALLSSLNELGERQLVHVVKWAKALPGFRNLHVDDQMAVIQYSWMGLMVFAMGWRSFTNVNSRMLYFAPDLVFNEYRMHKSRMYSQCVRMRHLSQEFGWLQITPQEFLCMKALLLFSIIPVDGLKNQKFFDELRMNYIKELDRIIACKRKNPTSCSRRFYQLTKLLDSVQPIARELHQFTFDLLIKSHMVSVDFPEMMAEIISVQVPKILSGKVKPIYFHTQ
Assay: androgenic activity rating (procedures described above; which one underlies the rating is not stated)
Parameters: key: +: androgenic activity found; ++: high androgenic activity; +++: excellent androgenic activity
Description: Androgenic activity can be measured in various ways. Thus, the potency of androgens can be determined in vitro using the cytoplasmic androgen receptor from human breast tumor cells (MCF-7 cell line); see Bergink, E. W. et al, Comparison of the receptor binding properties of nandrolone and testosterone under in vitro and in vivo conditions, J. Steroid Biochem. 22, 831-836 (1985). It is also possible to use Chinese hamster ovary (CHO) cells transfected with the human androgen receptor (incubation time 16 h, temperature 4° C.) and compared with the affinity of 5α-dihydrotestosterone [according to the procedure described by Bergink, E. W. et al, J. Steroid Biochem. 12, 1563-1570 (1983)]. The transactivative androgen activity of the compounds of the invention can be measured, e.g. in Chinese hamster ovary cells (CHO) transfected with the human androgen receptor (hAR), in combination with a mouse mammary tumor virus (MMTV), and luciferase […] (incubation time 16 h, temperature 37° C.) and compared with the activity of 5α-dihydrotestosterone [according to the procedure described by Schoonen, W. G. E. J. et al, Analyt. Biochem. 261, 222-224 (1998)]. For the in vivo potency determination of androgens the classical Hershberger test can be used. In this test the androgenic (increase in prostate weight) and anabolic activities [increase of the musculus levator ani (MLA)] of a compound are tested in immature castrated rats after daily administration for 7 days; see Hershberger, L. G. et al, Myotrophic activity of 19-Nortestosterone and other steroids determined by modified levator ani muscle method, Proceedings of the society for experimental biology and medicine 83, 175-180 (1953). Additionally, the effect of an androgenic compound on LH suppression can be tested in mature castrated rats according to Kumar, N. et al, The biological activity of 7alpha-methyl-19-nortestosterone is not amplified in male reproductive tract as is that of testosterone, Endocrinology 130, 3677-3683 (1992).
A plurality of compounds according to the invention were tested for androgenic activity (the procedures for which have been described above) and rated in the Table below according to the following scheme: • + androgenic activity found; • ++ high androgenic activity; • +++ excellent androgenic activity; • nd no data available

Compound	Rating (androgenic activity)
CC(O)C1CCC2C3CCC4=CC(=O)CCC4=C3CCC12C [Example 27b, (14β,17α,20R)-20-Hydroxy-19-norpregna-4,9-dien-3-one]	+
CCC(O)[C@@H]1CC[C@@H]2[C@H]3[C@H](CC[C@@]21C)[C@H]1CCC(=O)C=C1C[C@H]3C (stereo partly drawn) [Example 17b, [7α,14β,17α(R)]-17-(1-Hydroxypropyl)-7-methylestr-4-en-3-one]	+
CC[C@H](O)[C@@H]1CC[C@@H]2[C@@H]3CCC4=CC(=O)CC[C@@H]4[C@H]3CC[C@@]21C [Example 25a]	++
C[C@@H]1CC2=CC(=O)CC[C@@H]2[C@H]2CC[C@@]3(C)[C@H](C=C[C@H]3CO)[C@@H]21 [Example 5, (7α,14β,17α)-17-(hydroxymethyl)-7-methylestra-4,15-dien-3-one]	+++
C=CC(O)[C@@H]1CC[C@@H]2[C@H]3[C@H](CC[C@@]21C)[C@H]1CCC(=O)C=C1C[C@H]3C (stereo partly drawn) [Example 18a, [7α,14β,17α(S)]-17-(1-Hydroxy-2-propenyl)-7-methylestr-4-en-3-one]	+
C[C@]12CC[C@H]3[C@@H](CCC4=CC(=O)CC[C@@]43C)[C@H]1CC[C@H]2CO [Example 22b, (14β,17α)-17-(Hydroxymethyl)androst-4-en-3-one]	+
C[C@@H]1C[C@@H](CO)[C@@]2(C)CC[C@H]3[C@@H](CCC4=CC(=O)CC[C@@H]43)[C@@H]12 [Example 23, (14β,15β,17α)-17-(Hydroxymethyl)-15-methylestr-4-en-3-one]	+
C[C@@H]1CC2=C[C@@H](O)CC[C@@H]2[C@H]2CC[C@]3(C)[C@H](CO)CC[C@@H]3[C@@H]21 [Example 34, (3β,7α,14β,17α)-17-(Hydroxymethyl)-7-methylestr-4-en-3-ol]	++
CCCC[C@H]1CC[C@H](C(=O)OC[C@@H]2CC[C@@H]3[C@H]4[C@H](CC[C@]23C)[C@H]2CCC(=O)C=C2C[C@H]4C)CC1 (relative stereo) [Example 33d, (7α,14β,17α)-17-[[[(trans-4-Butylcyclohexyl)carbonyl]oxy]methyl]-7-methylestr-4-en-3-one]	+
C[C@@H]1CC2=C/C(=N/O)CC[C@@H]2[C@H]2CC[C@]3(C)[C@H](CO)CC[C@@H]3[C@@H]21 [Example 36a, (3E,7α,14β,17α)-3-(Hydroxyimino)-7-methylestr-4-ene-17-methanol]	+
C[C@@H]1CC2=CC(=O)CC[C@@H]2[C@H]2CC[C@@]3(C)[C@H]([C@@H]4C[C@@H]4[C@H]3CO)[C@@H]21 [Example 10, (7α,14β,15β,16β,17α)-17-(Hydroxymethyl)-7-methyl-15,16-methyleneestr-4-en-3-one]	++
CC1CC2=CC(=O)CCC2C2CCC3(C)C(CCC3(C)CO)C12 (stereo not drawn) [Example 11, (7α,14β,17α)-17-(Hydroxymethyl)-7,17-dimethylestr-4-en-3-one]	+
CCC12CCC3C4CCC(=O)C=C4CCC3C1CCC2C(C)O [Example 32a, (14β,17α,20S)-13-Ethyl-20-hydroxy-18,19-dinorpregn-4-en-3-one]	+
CC(=O)OC[C@@H]1CC[C@@H]2[C@H]3[C@H](CC[C@]12C)[C@H]1CCC(=O)C=C1C[C@H]3C [Example 33a, (7α,14β,17α)-17-[(Acetyloxy)methyl]-7-methylestr-4-en-3-one]	+
CC(O)C1C2CC2C2C3C(C)CC4=CC(=O)CCC4C3CCC12C [Example 20a, (7α,14β,15β,16β,17α,20S)-20-Hydroxy-7-methyl-15,16-methylene-19-norpregn-4-en-3-one]	++
C=CC[C@@H](O)[C@@H]1CC[C@@H]2[C@H]3[C@H](CC[C@@]21C)[C@H]1CCC(=O)C=C1C[C@H]3C [Example 18h, (7α,14β,17α,20R)-20-Hydroxy-7-methyl-19,21-dinorchola-4,23-dien-3-one]	+
CCC[C@H](O)[C@@H]1CC[C@@H]2[C@@H]3CCC4=CC(=O)CC[C@@H]4[C@H]3CC[C@@]21C [Example 25c, (14β,17α,20S)-20-Hydroxy-19,21-dinorchol-4-en-3-one]	+
C[C@@H]1CC2=CC(=O)CC[C@@H]2[C@H]2CC[C@]3(C)[C@H](CO)C[C@@H](C)[C@@H]3[C@@H]21 [Example 7, (7α,14β,15β,17α)-17-(Hydroxymethyl)-7,15-dimethylestr-4-en-3-one]	+
CC(O)C1C2CC2C2C3C(C)CC4=CC(=O)CCC4C3CCC12C [Example 20b, (7α,14β,15β,16β,17α,20R)-20-Hydroxy-7-methyl-15,16-methylene-19-norpregn-4-en-3-one]	+
C[C@@H]1CC2=CC(=O)CC[C@@H]2[C@H]2CC[C@@]3(C)[C@H](CC[C@@]3(O)CO)[C@@H]21 [Example 13, (7α,14β,17β)-17-Hydroxy-17-(hydroxymethyl)-7-methylestr-4-en-3-one]	+
CC1CC2=CC(=O)CCC2C2CCC3(C)C(C4CC4C3C(C)(C)O)C12 (stereo not drawn) [Example 21, (7α,14β,15β,16β,17α)-20-Hydroxy-7,20-dimethyl-15,16-methylene-19-norpregn4-en-3-one]	+
CCC1CC2(C)C(C(C)O)CCC2C2CCC3=C(CCC(=O)C3)C12 [Example 28a, (11β,14β,17α,20S)-11-Ethyl-20-hydroxy-19-norpregn-5(10)-en-3-one]	+
CC(O)C1CCC2C3CCC4=CC(=O)CCC4C3CCC12C [Example 24a, (14β,17α,20S)-20-Hydroxy-19-norpregn-4-en-3-one]	++
C[C@@H]1CC2=CC(=O)CC[C@@H]2[C@H]2CC[C@@]3(C)[C@H](C[C@H](C)[C@H]3CO)[C@@H]21 [Example 9, (7α,14β,16β,17α)-17-(Hydroxymethyl)-7,16-dimethylestr-4-en-3-one]	++
C[C@@H]1CC2=CC(=O)CC[C@@H]2[C@H]2CC[C@]3(C)[C@H](CO)CC[C@]3(C)[C@@H]21 [Example 6, (7α,14β,17α)-17-(Hydroxymethyl)-7,14-dimethylestr-4-en-3-one]	++
C#C[C@@H](O)[C@@H]1CC[C@@H]2[C@H]3[C@H](CC[C@@]21C)[C@H]1CCC(=O)C=C1C[C@H]3C [Example 18d, [7α,14β,17α(S)]-17-(1-Hydroxy-2-propynyl)-7-methylestr-4-en-3-one]	+
C[C@@H]1CC2=CCCC[C@@H]2[C@H]2CC[C@]3(C)[C@H](CO)CC[C@@H]3[C@@H]21 [Example 37, (7α,14β,17α)-7-Methylestr4-ene-17-methanol]	+
CCC1CC2(C)C(C(C)O)CCC2C2CCC3=CC(=O)CCC3C12 [Example 29a, (11β,14β,17α,20S)-11-Ethyl-20-hydroxy-19-norpregn-4-en-3-one]	+
